According to patent US11180474B2 (BRISTOL-MYERS SQUIBB COMPANY, priority 2016, dated 2021):

Legend:
[1] = molecular target: T1, human TLR8 (Homo sapiens, UniProt Q9NR97); experiment: TLR8 inhibition reporter assay (HEK-Blue cells, SEAP reporter, R848 stimulation); format: cell-based; conditions: HEK-Blue cells overexpressing human TLR8, R848 15.9 μM
T1 construct: host or cells: HEK-Blue cells
T1 sequence (Q9NR97 27-1041): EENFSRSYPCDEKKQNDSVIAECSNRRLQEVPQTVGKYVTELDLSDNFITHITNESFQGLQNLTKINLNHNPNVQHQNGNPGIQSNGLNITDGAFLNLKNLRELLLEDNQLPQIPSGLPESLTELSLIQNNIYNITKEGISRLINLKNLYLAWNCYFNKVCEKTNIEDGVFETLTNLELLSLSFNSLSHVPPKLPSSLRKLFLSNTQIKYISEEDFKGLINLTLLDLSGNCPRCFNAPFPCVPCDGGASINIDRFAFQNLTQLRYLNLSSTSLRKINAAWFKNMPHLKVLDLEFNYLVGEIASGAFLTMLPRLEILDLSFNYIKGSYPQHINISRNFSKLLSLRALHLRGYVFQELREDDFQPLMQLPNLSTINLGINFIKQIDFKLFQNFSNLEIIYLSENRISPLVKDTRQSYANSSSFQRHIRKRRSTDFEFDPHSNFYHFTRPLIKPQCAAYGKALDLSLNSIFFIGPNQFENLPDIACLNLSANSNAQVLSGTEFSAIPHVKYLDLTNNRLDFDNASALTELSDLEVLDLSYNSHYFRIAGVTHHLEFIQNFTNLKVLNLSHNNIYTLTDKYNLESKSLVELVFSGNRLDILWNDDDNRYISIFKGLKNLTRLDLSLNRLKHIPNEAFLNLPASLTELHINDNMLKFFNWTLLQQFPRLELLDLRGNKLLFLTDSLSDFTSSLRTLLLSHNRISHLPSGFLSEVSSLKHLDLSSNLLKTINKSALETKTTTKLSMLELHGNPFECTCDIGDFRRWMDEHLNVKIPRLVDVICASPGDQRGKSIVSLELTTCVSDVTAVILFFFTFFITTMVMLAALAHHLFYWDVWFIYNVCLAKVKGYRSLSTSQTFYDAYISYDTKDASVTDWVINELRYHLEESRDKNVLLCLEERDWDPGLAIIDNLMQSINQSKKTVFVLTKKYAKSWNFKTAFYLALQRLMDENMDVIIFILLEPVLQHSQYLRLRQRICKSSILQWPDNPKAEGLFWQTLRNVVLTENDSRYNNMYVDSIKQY
Description: TLR7/8/9 Inhibition Reporter Assays
Briefly, cells are seeded into Greiner 384 well plates (15000 cells per well for TLR7, 20,000 for TLR8 and 25,000 for TLR9) and then treated with test compounds in DMSO to yield a final dose response concentration range of 0.05 nM-50 μM. […] After a 22 hour incubation at 37° C., 5% CO2, SEAP levels are determined with the addition of HEK-Blue™ Detection reagent (Invivogen), a cell culture medium that allows for detection of SEAP, according to manufacturer's specifications. The percent inhibition is determined as the % reduction in the HEK-Blue signal present in wells treated with agonist plus DMSO alone compared to wells treated with a known inhibitor.

[2] = molecular target: T2, human TLR9 (Homo sapiens, UniProt Q9NR96); experiment: TLR9 inhibition reporter assay (HEK-Blue cells, SEAP reporter, ODN2006 stimulation); format: cell-based; conditions: HEK-Blue cells overexpressing human TLR9, ODN2006 5 nM
T2 construct: host or cells: HEK-Blue cells
T2 sequence (Q9NR96 26-1032): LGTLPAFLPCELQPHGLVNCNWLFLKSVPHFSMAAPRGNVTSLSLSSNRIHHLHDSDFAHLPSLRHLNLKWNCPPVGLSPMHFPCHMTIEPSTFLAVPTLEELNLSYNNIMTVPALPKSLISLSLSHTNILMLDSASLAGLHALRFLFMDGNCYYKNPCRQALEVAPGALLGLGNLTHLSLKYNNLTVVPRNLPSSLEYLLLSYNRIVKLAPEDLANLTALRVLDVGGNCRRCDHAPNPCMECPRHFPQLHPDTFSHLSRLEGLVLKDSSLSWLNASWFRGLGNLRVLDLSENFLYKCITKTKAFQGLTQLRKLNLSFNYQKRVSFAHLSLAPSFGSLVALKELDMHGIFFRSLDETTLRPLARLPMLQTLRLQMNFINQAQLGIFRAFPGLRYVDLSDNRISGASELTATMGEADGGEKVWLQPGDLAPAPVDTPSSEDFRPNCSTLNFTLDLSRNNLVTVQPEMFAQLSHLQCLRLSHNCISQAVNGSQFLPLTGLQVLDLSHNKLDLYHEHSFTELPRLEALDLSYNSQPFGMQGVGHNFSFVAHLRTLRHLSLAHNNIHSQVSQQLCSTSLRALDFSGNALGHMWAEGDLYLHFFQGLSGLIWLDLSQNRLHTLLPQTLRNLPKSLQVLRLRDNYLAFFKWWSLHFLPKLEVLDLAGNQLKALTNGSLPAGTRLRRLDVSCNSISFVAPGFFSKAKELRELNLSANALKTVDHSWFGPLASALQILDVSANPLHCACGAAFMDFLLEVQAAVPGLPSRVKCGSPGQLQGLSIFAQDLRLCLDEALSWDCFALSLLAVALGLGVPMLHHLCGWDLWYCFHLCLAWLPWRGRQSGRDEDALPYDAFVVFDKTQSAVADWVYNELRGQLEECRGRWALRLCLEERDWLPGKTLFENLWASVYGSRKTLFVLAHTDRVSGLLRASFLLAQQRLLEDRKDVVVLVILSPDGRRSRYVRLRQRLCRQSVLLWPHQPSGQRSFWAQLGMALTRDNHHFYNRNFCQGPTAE
Method in brief: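 Dose–response from 0.05 nM to 50 μM was run in HEK-Blue human TLR7, TLR8 and TLR9 reporter cells. After 30 min at room temperature with compound, ligand was added (TLR7 gardiquimod 7.5 μM; TLR8 R848 15.9 μM; TLR9 ODN2006 5 nM) and SEAP measured next day, at 22 h.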

[3] = molecular target: T3, human TLR7 (Homo sapiens, UniProt Q9NYK1); experiment: TLR7 inhibition reporter assay (HEK-Blue cells, SEAP reporter, gardiquimod stimulation); format: cell-based; conditions: HEK-Blue cells overexpressing human TLR7, gardiquimod 7.5 μM
T3 construct: host or cells: HEK-Blue cells
T3 sequence (Q9NYK1 27-1049): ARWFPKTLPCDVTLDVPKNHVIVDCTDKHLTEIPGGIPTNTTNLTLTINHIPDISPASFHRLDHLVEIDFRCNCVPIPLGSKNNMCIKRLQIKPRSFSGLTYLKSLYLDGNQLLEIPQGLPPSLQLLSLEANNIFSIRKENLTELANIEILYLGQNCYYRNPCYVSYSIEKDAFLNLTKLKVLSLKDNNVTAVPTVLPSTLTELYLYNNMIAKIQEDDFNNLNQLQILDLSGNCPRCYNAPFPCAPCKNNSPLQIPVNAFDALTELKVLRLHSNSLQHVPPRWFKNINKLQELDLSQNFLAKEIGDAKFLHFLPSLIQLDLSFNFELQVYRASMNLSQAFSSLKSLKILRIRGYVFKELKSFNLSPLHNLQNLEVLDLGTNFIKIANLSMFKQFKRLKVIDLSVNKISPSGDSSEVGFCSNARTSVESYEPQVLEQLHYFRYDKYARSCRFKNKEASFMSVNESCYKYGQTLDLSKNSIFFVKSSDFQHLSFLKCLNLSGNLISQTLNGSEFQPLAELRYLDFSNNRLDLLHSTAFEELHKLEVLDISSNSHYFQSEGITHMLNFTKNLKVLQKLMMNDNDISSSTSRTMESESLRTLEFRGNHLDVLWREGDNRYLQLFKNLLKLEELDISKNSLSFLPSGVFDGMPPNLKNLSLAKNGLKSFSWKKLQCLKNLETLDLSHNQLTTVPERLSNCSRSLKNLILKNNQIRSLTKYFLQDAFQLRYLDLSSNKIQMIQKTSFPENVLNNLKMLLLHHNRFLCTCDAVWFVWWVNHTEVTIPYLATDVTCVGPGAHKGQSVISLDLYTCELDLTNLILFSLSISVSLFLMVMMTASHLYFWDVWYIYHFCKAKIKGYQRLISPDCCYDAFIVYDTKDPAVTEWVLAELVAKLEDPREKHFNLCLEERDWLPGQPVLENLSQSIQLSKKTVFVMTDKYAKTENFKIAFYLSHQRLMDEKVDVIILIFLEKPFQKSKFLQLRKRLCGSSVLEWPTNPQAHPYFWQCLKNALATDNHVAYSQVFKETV
Method in brief: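 In this cell reporter format, test compounds at 0.05 nM-50 μM final incubate 22 h with seeded cells (TLR7 15000, TLR8 20,000 per well). SEAP read-out by HEK-Blue Detection medium yields % inhibition relative to agonist/DMSO and known-inhibitor wells.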

[4] = tested on: TLR9; experiment: In vivo mouse TLR9 PD model (CpG-ODN challenge, plasma IL-6); conditions: oral
Description: In Vivo Mouse TLR7 and TLR9 PD Model:
Adult male C57BL/6 mice were used for the experiments. Mice (7 to 10 per group) were randomized into different treatment groups based on body weight. Mice from the respective treatment groups were administered orally with vehicle or test compound. Thirty min after the oral administration of vehicle or test compound, mice were challenged with intraperitoneal injection of gardiquimod for TLR7 PD model and CpG-ODN for TLR9 PD model. Ninety minutes after gardiquimod injection and 120 minutes after CpG-ODN injection, mice were bled under isoflurane anaesthesia and plasma IL-6 level was estimated by using commercially available ELISA kit (BD Biosciences). At the end of experiment, mean cytokine data was plotted and one way ANOVA with Dunnett's test was performed to calculate the significance of test compound treated group vs. vehicle control group. Percent inhibition of cytokine induction was calculated for test compound treated group vs vehicle control group.

SMILES | IC50 [1] | IC50 [2] | IC50 [3] | also measured
COc1ccc(-c2[nH]c3ccc(C4CCN(Cc5ccncc5)CC4)cc3c2C)cc1OC [Example 20, 2-(3,4-dimethoxyphenyl)-3-methyl-5-(1-(pyridin-4-ylmethyl)piperidin-4-yl)-1H-indole] | 978 nM | 1740 nM |  | 
CNCCN1CCC(c2ccc3[nH]c(-c4ccc(OC)c(OC)c4)c(C#N)c3c2)CC1 [Example 118, 2-(3,4-dimethoxyphenyl)-5-(1-(2-(methylamino)ethyl)piperidin-4-yl)-1H-indole-3-carbonitrile-di-trifluoroacetic acid] | 347 nM | 260 nM |  | 
CNCCN1CCC(c2ccc3[nH]c(-c4ccc(OC)c(OC)c4)c(Cl)c3c2)CC1 [Example 119] | 555 nM | 409 nM |  | 
CCc1c(-c2ccc(OC)c(OC)c2)[nH]c2ccc(C3CCN(C4CCN(Cc5c(C)[nH]c6ccccc56)CC4)CC3)cc12 [Example 129, 2-(3,4-dimethoxyphenyl)-3-ethyl-5-(1′-((2-methyl-1H-indol-3-yl)methyl)-[1,4′-bipiperidin]-4-yl)-1H-indole] | 378 nM |  | 1140 nM | 
CCc1c(-c2ccc(OC)c(OC)c2)[nH]c2ccc(C3CCN(C4CCN(Cc5nccn5C)CC4)CC3)cc12 [Example 136, 2-(3,4-dimethoxyphenyl)-3-ethyl-5-(1′-((1-methyl-1H-imidazol-2-yl)methyl)-[1,4′-bipiperidin]-4-yl)-1H-indole] | 330 nM |  | 735 nM | 
CCc1c(-c2ccc(OC)c(OC)c2)[nH]c2ccc(C3CCN(C4CCN(Cc5ccoc5)CC4)CC3)cc12 [Example 146, 2-(3,4-dimethoxyphenyl)-3-ethyl-5-(1′-(furan-3-ylmethyl)-[1,4′-bipiperidin]-4-yl)-1H-indole] | 178 nM |  | 586 nM | 
CNCCN1CCC(c2ccc3[nH]c(-c4ccc(OC)c(OC)c4)c(C(C)C)c3c2)CC1 [Example 196, 2-(4-(2-(3,4-dimethoxyphenyl)-3-isopropyl-1H-indol-5-yl)piperidin-1-yl)-N-methylethan-1-amine] |  | 521 nM |  | % inhibition of IL6 ([4]; dose 1 mg/kg): 47%; % inhibition of IL6 ([4]; dose 3 mg/kg): 75%; % inhibition of IL6 ([4]; dose 10 mg/kg): 83%; % inhibition of IL6 ([4]; dose 30 mg/kg): 88%; % inhibition of IL6 ([4]; dose 100 mg/kg): 62%
COc1ccc(-c2[nH]c3ccc(C4CCN(Cc5[nH]cnc5C)CC4)cc3c2C(C)C)cc1OC [Example 267, 2-(3,4-dimethoxyphenyl)-3-isopropyl-5-(1-((4-methyl-1H-imidazol-5-yl)methyl)piperidin-4-yl)-1H-indole] | 25 nM |  |  | 
COc1ccc(-c2[nH]c3ccc(C4CCN(C(=O)COC5CCN(C)CC5)CC4)cc3c2C(C)C)cc1OC [Example 315, 1-(4-(2-(3,4-dimethoxyphenyl)-3-isopropyl-1H-indol-5-yl)piperidin-1-yl)-2-((1-methylpiperidin-4-yl)oxy)ethan-1-one] | 824 nM |  | 538 nM | 
COc1ccc(-c2[nH]c3ccc(C4CCN(C5CCCN(CC(C)C)C5)CC4)cc3c2C)cc1OC (stereo not shown) [Example 416, 2-(3,4-dimethoxyphenyl)-5-(1′-isobutyl-[1,3′-bipiperidin]-4-yl)-3-methyl-1H-indole] |  | 291 nM | 677 nM | 
COc1ccc(-c2[nH]c3ccc(C4CCN(C5CCCN(CC(C)C)C5)CC4)cc3c2C)cc1OC (stereo not shown) [Example 417, 2-(3,4-dimethoxyphenyl)-5-(1′-isobutyl-[1,3′-bipiperidin]-4-yl)-3-methyl-1H-indole] |  | 565 nM | 1180 nM | 
